Source: patent US20250228865A1, “COMPOUNDS FOR ENHANCING READ THROUGH OF GENES CONTAINING PREMATURE TERMINATION CODONS AND METHODS FOR MAKING AND USING THE SAME” (Sanofi US Services Inc., priority 2022, published 2025)
pEC50: −log10 of the molar value.

Key:
[1] = tested on: recombinant human CFTR carrying the premature stop codon (PTC) mutation G542X; assay: CFTR-PTC mutant translation readthrough, Nanoluc tagged CFTR luminescence (G542X cell line); assay type: cell-based; details: in combination with G418, G542X cell line; for CFTR G542X ACTIVITY Fold 10 μM G-418: fold over 10 μM G-418; for pEC50: 16HBE cells
In short: (§1)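 16HBE cells stably expressing Nanoluc-tagged human CFTR with G542X or R1162X, in medium with 3 μM VX-809, treated 48 h at 37 °C with compound (10-point, 2-fold, top 50 μM final) alone or with 10 μM G418. Live-cell Nanoluc luminescence normalised to a maximally effective G418 (125-250 μM).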

[2] = tested on: recombinant human CFTR carrying the premature stop codon (PTC) mutation R1162X; assay: CFTR-PTC mutant translation readthrough, Nanoluc tagged CFTR luminescence (R1162X cell line); assay type: cell-based; details: for CFTR R1162X ACTIVITY Fold 10 μM G-418: fold over 10 μM G-418, in combination with G418; for pEC50: in combination with G418, 16HBE cells, read-out: CFTR R1162X ACTIVITY EC50
In short: as §1

Structure (SMILES)	CFTR G542X ACTIVITY Fold 10 μM G-418 [1]	pEC50 [1]	CFTR R1162X ACTIVITY Fold 10 μM G-418 [2]	pEC50 [2]
O=C1OC(CO)CN1c1ccc(OCc2c(Cl)cccc2Cl)c(F)c1 (stereo not shown)	B′ (B′ = ≥5X to <10X)	5.00 to 6.00	C′ (C′ = <5X)	5.00 to 6.00
O=C1CN(c2ncc(OCc3c(Cl)cccc3C(F)(F)F)cn2)CC(CO)N1 (stereo not shown)	A′ (A′ = ≥10X)	5.00 to 6.00	A′ (A′ = ≥10X)	5.00 to 6.00
O=C1OC(CO)CN1c1ncc(CCc2c(Cl)cccc2Cl)cn1 (stereo not shown)		< 5.00		< 5.00
FC(F)(F)c1cccc(Cl)c1COc1cnc(-n2ncc(-c3ccccn3)n2)nc1	A′ (A′ = ≥10X)	> 6.00	A′ (A′ = ≥10X)	> 6.00
O=C1OC(CO)CN1c1ccc(OCc2c(Cl)cccc2C2CC2)cc1 (stereo not shown)	A′ (A′ = ≥10X)	5.00 to 6.00	A′ (A′ = ≥10X)	5.00 to 6.00
COCC1CN(c2ccc(OCc3c(Cl)cccc3Cl)cc2)C(=O)N1 (stereo not shown) [1-[4-[(2,6-dichlorophenyl)methoxy]phenyl]-4-(methoxymethyl)imidazolidin-2-one]	B′ (B′ = ≥5X to <10X)	5.00 to 6.00	B′ (B′ = ≥5X to <10X)	5.00 to 6.00
O=c1[nH]ncc2cc(OCc3c(Cl)cccc3Cl)ccc12 [6-[(2,6-dichlorophenyl)methoxy]-2H-phthalazin-1-one]	B′ (B′ = ≥5X to <10X)	< 5.00	A′ (A′ = ≥10X)	5.00 to 6.00
O=C1OC(CO)CN1c1ccc(OCc2c(Cl)cccc2C(F)(F)F)cn1 (stereo not shown)	A′ (A′ = ≥10X)	> 6.00	A′ (A′ = ≥10X)	5.00 to 6.00
COc1ccc(CN2C(=O)CN(c3ccc(OCc4c(C)cccc4C(F)(F)F)cc3)C2=O)cc1	B′ (B′ = ≥5X to <10X)	5.00 to 6.00	B′ (B′ = ≥5X to <10X)	5.00 to 6.00
O=C1N[C@H](CO)C(=O)N1c1ccc(OCc2c(Cl)cccc2Cl)cn1	A′ (A′ = ≥10X)	< 5.00	B′ (B′ = ≥5X to <10X)	< 5.00
NC(=O)N1CCN(c2ncc(OCc3c(Cl)cccc3C(F)(F)F)cn2)CC1	A′ (A′ = ≥10X)	> 6.00	A′ (A′ = ≥10X)	> 6.00
O=C1OC(CO)CN1c1ccc(OCc2cc(Cl)cc(Cl)c2)cc1 (stereo not shown) [3-[4-[(3,5-dichlorophenyl)methoxy]phenyl]-5-(hydroxymethyl)oxazolidin-2-one]	B′ (B′ = ≥5X to <10X)	5.00 to 6.00	B′ (B′ = ≥5X to <10X)	< 5.00
O=C1O[C@H](CO)CN1c1ncc(OCc2c(Cl)cccc2C(F)(F)F)cn1 [(5S)-3-(5-{[2-chloro-6-(trifluoromethyl)phenyl]methoxy}pyrimidin-2-yl)-5-(hydroxymethyl)-1,3-oxazolidin-2-one]	C′ (C′ = <5X)	5.00 to 6.00	C′ (C′ = <5X)	< 5.00
OCc1cnn(-c2ccc(OCc3c(Cl)cccc3Cl)cc2)c1 [[1-[4-[(2,6-dichlorophenyl)methoxy]phenyl]pyrazol-4-yl]methanol]	A′ (A′ = ≥10X)	5.00 to 6.00	A′ (A′ = ≥10X)	5.00 to 6.00
OCc1cn(-c2ccc(OCc3c(Cl)cccc3Cl)cc2)cn1 [[1-[4-[(2,6-dichlorophenyl)methoxy]phenyl]imidazol-4-yl]methanol]	A′ (A′ = ≥10X)	> 6.00	A′ (A′ = ≥10X)	5.00 to 6.00
Cc1cccc(C(F)(F)F)c1COc1cnc(N2CCN(C(N)=O)CC2)nc1	A′ (A′ = ≥10X)	> 6.00	A′ (A′ = ≥10X)	> 6.00
Cc1cccc(C(F)(F)F)c1COc1cnc(-c2cc(CO)on2)nc1	A′ (A′ = ≥10X)	> 6.00	A′ (A′ = ≥10X)	5.00 to 6.00
Cc1cccc(C(F)(F)F)c1COc1ccc(N2C(=O)NC(C)(C)C2=O)nc1	A′ (A′ = ≥10X)	5.00 to 6.00	B′ (B′ = ≥5X to <10X)	5.00 to 6.00
O=C(O)C1CN(c2ccc(OCc3c(Cl)cccc3C(F)(F)F)cn2)CCO1 (stereo not shown)	C′ (C′ = <5X)	5.00 to 6.00	C′ (C′ = <5X)	< 5.00

Structure (SMILES)	CFTR G542X ACTIVITY Fold 10 μM G-418 [1]	pEC50 [1]	CFTR R1162X ACTIVITY Fold 10 μM G-418 [2]	pEC50 [2]
NC(=O)C1CN(c2ncc(OCc3c(Cl)cccc3Cl)cn2)C1 [1-[5-[(2,6-dichlorophenyl)methoxy]pyrimidin-2-yl]azetidine-3-carboxamide]	B′ (B′ = ≥5X to <10X)	5.00 to 6.00	A′ (A′ = ≥10X)	5.00 to 6.00
O=C1OCC2CN(c3ncc(OCc4c(Cl)cccc4Cl)cn3)CCN12 (stereo not shown)	A′ (A′ = ≥10X)	5.00 to 6.00	B′ (B′ = ≥5X to <10X)	5.00 to 6.00
Clc1cccc(Cl)c1COc1cnc(-n2ncc(-c3ccccn3)n2)nc1 [5-[(2,6-dichlorophenyl)methoxy]-2-[4-(2-pyridyl)triazol-2-yl]pyrimidine]	A′ (A′ = ≥10X)	5.00 to 6.00	A′ (A′ = ≥10X)	5.00 to 6.00
Cc1cccc(C(F)(F)F)c1COc1ccc(-n2cnc(CO)n2)cc1	A′ (A′ = ≥10X)	> 6.00	A′ (A′ = ≥10X)	> 6.00
OCC1CN(c2ccc(OCc3c(Cl)cccc3C(F)(F)F)cn2)CCO1 (stereo not shown)	A′ (A′ = ≥10X)	> 6.00	A′ (A′ = ≥10X)	> 6.00
OCCn1cc(-c2ccc(OCc3c(Cl)cccc3Cl)cc2)nn1 [2-[4-[4-[(2,6-dichlorophenyl)methoxy]phenyl]triazol-1-yl]ethanol]	B′ (B′ = ≥5X to <10X)	5.00 to 6.00	A′ (A′ = ≥10X)	5.00 to 6.00
O=C1CN(Cc2ccccc2)C(=O)N1c1ncc(OCc2ccccc2)cn1 [1-benzyl-3-(5-benzyloxypyrimidin-2-yl)imidazolidine-2,4-dione]	A′ (A′ = ≥10X)	> 6.00	A′ (A′ = ≥10X)	5.00 to 6.00
O[C@H]1CCN(c2ncc(OCc3c(Cl)cccc3Cl)cn2)C1 [(3S)-1-[5-[(2,6-dichlorophenyl)methoxy]pyrimidin-2-yl]pyrrolidin-3-ol]	A′ (A′ = ≥10X)	5.00 to 6.00	A′ (A′ = ≥10X)	5.00 to 6.00
OC[C@H]1CN(c2ncc(OCc3c(Cl)cccc3Cl)cn2)C[C@@H](C(F)(F)F)O1 (racemic)	A′ (A′ = ≥10X)	5.00 to 6.00	A′ (A′ = ≥10X)	5.00 to 6.00
CN1C(=O)CN(c2ncc(OCc3c(Cl)cccc3C(F)(F)F)cn2)CC1CO (stereo not shown)	C′ (C′ = <5X)	> 6.00	C′ (C′ = <5X)	5.00 to 6.00
O=C1OC(CO)CN1c1ccc(OCc2cc(Cl)cc(Cl)c2)cn1 (stereo not shown) [3-[5-[(3,5-dichlorophenyl)methoxy]-2-pyridyl]-5-(hydroxymethyl)oxazolidin-2-one]	A′ (A′ = ≥10X)	5.00 to 6.00	A′ (A′ = ≥10X)	5.00 to 6.00
OCc1ncn(-c2ccc(OCc3c(Cl)cccc3OC(F)(F)F)cc2)n1	A′ (A′ = ≥10X)	5.00 to 6.00	A′ (A′ = ≥10X)	5.00 to 6.00
Cc1cccc(C)c1COc1ccc(N2CC(CO)OC2=O)cc1 (stereo not shown) [3-[4-[(2,6-dimethylphenyl)methoxy]phenyl]-5-(hydroxymethyl)oxazolidin-2-one]	B′ (B′ = ≥5X to <10X)	5.00 to 6.00	A′ (A′ = ≥10X)	< 5.00
OCC1CN(c2ncc(OCc3c(Cl)cccc3Cl)cn2)CCN1 (stereo not shown) [[4-[5-[(2,6-dichlorophenyl)methoxy]pyrimidin-2-yl]piperazin-2-yl]methanol]	A′ (A′ = ≥10X)	5.00 to 6.00	A′ (A′ = ≥10X)	5.00 to 6.00
CN(CCCO)c1ncc(OCc2c(Cl)cccc2Cl)cn1 [3-[[5-[(2,6-dichlorophenyl)methoxy]pyrimidin-2-yl]-methyl-amino]propan-1-ol]	B′ (B′ = ≥5X to <10X)	5.00 to 6.00	B′ (B′ = ≥5X to <10X)	< 5.00
OCC1CN(c2ncc(OCc3c(Cl)cccc3Cl)cn2)CCO1 (stereo not shown) [[4-[5-[(2,6-dichlorophenyl)methoxy]pyrimidin-2-yl]morpholin-2-yl]methanol]	A′ (A′ = ≥10X)	> 6.00	A′ (A′ = ≥10X)	5.00 to 6.00
Cc1cccc(C(F)(F)F)c1COc1cnc(-n2cnc(CO)n2)nc1	A′ (A′ = ≥10X)	> 6.00	A′ (A′ = ≥10X)	5.00 to 6.00
O=C1CNC(=O)N1c1ccc(OCc2c(Cl)cccc2C(F)(F)F)cn1	B′ (B′ = ≥5X to <10X)	5.00 to 6.00		< 5.00
